{"source": "ChEMBL document CHEMBL1133410", "about": "“Synthesis of enantiomerically pure (+)- and (-)-18-methoxycoronaridine hydrochloride and their preliminary assessment as anti-addictive agents” (Bioorg Med Chem Lett, 2000)", "biological_target": "Mu-type opioid receptor (Bos taurus, UniProt P79350)", "sequence (P79350 whole entry)": "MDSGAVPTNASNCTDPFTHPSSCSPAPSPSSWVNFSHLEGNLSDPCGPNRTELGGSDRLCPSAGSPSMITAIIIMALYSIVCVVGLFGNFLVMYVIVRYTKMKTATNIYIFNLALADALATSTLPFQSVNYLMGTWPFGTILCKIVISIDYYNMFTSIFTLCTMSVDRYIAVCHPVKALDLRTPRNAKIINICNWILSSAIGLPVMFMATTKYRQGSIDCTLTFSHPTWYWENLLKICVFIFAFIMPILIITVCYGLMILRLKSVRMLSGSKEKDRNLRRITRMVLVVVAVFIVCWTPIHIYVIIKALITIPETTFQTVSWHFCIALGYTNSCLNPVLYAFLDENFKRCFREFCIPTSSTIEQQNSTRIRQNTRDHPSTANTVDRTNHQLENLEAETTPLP", "assay": "Binding affinity against Opioid receptor mu 1 of calf cortex using […] as radioligand", "note": "Structures can show the parent of a compound that is named as a salt.", "data": [{"smiles": "COCCC1CC2CN3CCc4c([nH]c5ccccc45)C(C(=O)OC)(C2)C13", "note": "(racemic) [ZOLUNICANT HYDROCHLORIDE]", "values": [{"measurement": "Ki", "value": 1100, "unit": "nM"}]}, {"smiles": "COCCC1CC2CN3CCc4c([nH]c5ccccc45)C(C(=O)OC)(C2)C13", "note": "(stereo in doubt; (+)) [ZOLUNICANT HYDROCHLORIDE]", "values": [{"measurement": "Ki", "value": 740, "unit": "nM"}]}, {"smiles": "COCCC1CC2CN3CCc4c([nH]c5ccccc45)C(C(=O)OC)(C2)C13", "note": "(stereo in doubt; (-)) [ZOLUNICANT HYDROCHLORIDE]", "values": [{"measurement": "Ki", "value": 13000, "unit": "nM"}]}]}
